Where two headings read alike, the source gives them in different places.
Legend:
[1] = system: conditioned avoidance responding; experiment: Conditioned avoidance, shelf-jump response test; format: in vivo, male CD rats (Charles River); details: ip, single dose, rat
Source text: (§1) The antipsychotic properties of the compounds of this invention were established by standard pharmacologically accepted procedures involving conditioned avoidance studies in which trained male CD rats (Charles River), 400-450 g. body weight are exposed to a fifteen second warning tone (conditioned stimulus) continued for an additional fifteen seconds accompanied by electric shock. The rat can avoid the electric shock by jumping to an exposed shelf (shelf-jump response). A response during the initial warning tone is considered an avoidance response, while a response during shock delivery is considered as escape response. The shelf-jump response test procedure follows that of Herman et al., Comm. in Psychopharm., 3, pp. 165-171 (1979). The compounds of this invention were tested at a single dose (40 mg./kg. i.p.) in this procedure and were rated relative to their inhibition of conditioned avoidance responding. A similar test procedure in which a lever press was substituted for a shelf-jump was used to establish the oral (p.o) activity of the test compounds. Orally active compounds were tested over a full dose range and the Avoidance Block activities reported as "AB50 's" (mg./kg.).

D-2 dopamine receptor = target: T1, D-2 dopamine receptor (Rattus norvegicus, UniProt P61169); experiment: [3H]Spiroperidol binding inhibition, homogenized limbic brain tissue
T1 construct: from tissue; host or cells: limbic brain tissue
Source text: The results of this testing with compounds representative of the invention whose production is exemplified,infra, are as follows: […]

[2] = target: T2, 5-HT1A serotonin receptor (Rattus norvegicus, UniProt P19327); experiment: Inhibition of [3H] 8-OH DPAT binding; details: for Ki / inhibition at 1 µM: 5-HT1A
T2 construct: 44: 1685-1696, 1985; from tissue
T2 sequence (P19327 1-422): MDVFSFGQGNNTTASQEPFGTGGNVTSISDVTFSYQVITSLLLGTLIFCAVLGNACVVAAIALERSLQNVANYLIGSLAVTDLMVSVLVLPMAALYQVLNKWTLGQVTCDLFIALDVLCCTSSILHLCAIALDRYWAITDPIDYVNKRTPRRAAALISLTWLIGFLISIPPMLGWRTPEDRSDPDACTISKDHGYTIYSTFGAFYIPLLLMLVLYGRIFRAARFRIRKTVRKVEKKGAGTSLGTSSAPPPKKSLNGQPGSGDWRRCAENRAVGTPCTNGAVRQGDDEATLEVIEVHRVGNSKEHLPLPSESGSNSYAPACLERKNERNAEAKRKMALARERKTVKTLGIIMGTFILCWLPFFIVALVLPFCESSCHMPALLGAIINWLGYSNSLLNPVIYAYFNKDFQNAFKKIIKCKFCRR
Source text: 8-OH DPAT (dipropylaminotetralin) from the 5-HT1A serotonin receptor by the procedure of Hall et al., J. Neurochem.

[3] = system: apomorphine-induced stereotyped behavior and climbing; experiment: Antagonism of apomorphine-induced stereotyped behavior and climbing; format: in vivo, CF-1 mice (Charles River); details: mice; for ED50: Mus musculus; for ED50 / Apomorphine antagonism ED50, stereotypy / Apomorphine antagonism ED50, climbing: head: p.o. (text: i.p.), apomorphine 1 mg/kg s.c.; for Ratio of the ED50 for stereotyped behavior to the ED50 for climbing: apomorphine-induced stereotypy/climbing
[4] = system: conditioned avoidance responding; experiment: Conditioned avoidance, discrete trial (lever press), oral; format: in vivo, rat; details: for ED50: Rattus norvegicus, po, read-out: Conditioned avoidance, discrete trial AB50 (Avoidance Block); for Conditioned avoidance, discrete trial AB50 (Avoidance Block): p.o.
Source text: as §1

[5] = read-out: Apomorphine antagonism ED50, climbing
[6] = read-out: Apomorphine antagonism ED50, stereotypy

T1 sequence (P61169 whole entry): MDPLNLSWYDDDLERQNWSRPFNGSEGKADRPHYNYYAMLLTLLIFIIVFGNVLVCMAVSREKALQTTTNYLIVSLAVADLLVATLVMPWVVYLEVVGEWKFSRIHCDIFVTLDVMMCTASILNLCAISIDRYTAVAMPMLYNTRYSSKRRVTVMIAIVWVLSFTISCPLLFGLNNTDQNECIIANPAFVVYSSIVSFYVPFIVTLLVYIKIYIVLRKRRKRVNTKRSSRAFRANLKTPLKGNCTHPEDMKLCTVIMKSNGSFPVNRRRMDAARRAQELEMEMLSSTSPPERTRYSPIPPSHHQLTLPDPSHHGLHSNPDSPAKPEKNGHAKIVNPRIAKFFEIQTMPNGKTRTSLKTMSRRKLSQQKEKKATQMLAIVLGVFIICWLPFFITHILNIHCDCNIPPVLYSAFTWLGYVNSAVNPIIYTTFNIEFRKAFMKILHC

Row | Compound | inhibition at 1 µM (D-2 dopamine receptor) [%] | Ki [2] [nM] | Ki (D-2 dopamine receptor) [nM] | inhibition at 1 µM [2] [%] | inhibition in vivo at 40 mg/kg [1] [%] | ED50 [3, 5] [mg/kg] | Apomorphine antagonism ED50, stereotypy [3] | ED50 [4] [mg/kg] | Conditioned avoidance, discrete trial AB50 (Avoidance Block) [4] | ED50 [3, 6] [mg/kg] | Apomorphine antagonism ED50, climbing [3] | Affinity for 5-HT1A serotonin receptor (in words) ([2]; [3H] 8-OH DPAT displacement) | Ratio of the ED50 for stereotyped behavior to the ED50 for climbing [3]
1 | O=C1C2CC(C(=O)N1CCCCN1CCN(c3ncccn3)CC1)C1CCCC21 (centres unmarked) [Example 1, Hexahydro-3-[4-[4-(2-pyrimidinyl)-1-piperazinyl]butyl]-1,5-methanocyclopent[d]azepine-2,4(1H,3H)-dione] | 54 | 3 | – | – | > 20 | 4.08 | inactive | 40.1 | – | – | – | – | –
2 | O=C1C2CC(C(=O)N1CCCCN1CCN(c3cncc(Cl)n3)CC1)C1CCCC21 (centres unmarked) [Example 2, Hexahydro-3-[4-[4-(6-chloro-2-pyrazinyl)-1-piperazinyl]butyl]-1,5-methanocyclopent[d]azepine-2,4(1H,3H)-dione] | 20 | 31 | – | – | > 20 | 24.2 | inactive | – | inactive | – | – | – | –
3 | O=C1C2CC(C(=O)N1CCCCN1CCN(c3cnccn3)CC1)C1CCCC21 (centres unmarked) [Example 3, Hexahydro-3-[4-[4-(2-pyrazinyl)-1-piperazinyl]butyl]-1,5-methanocyclopent[d]azepine-2,4(1H,3H)-dione] | 23 | 41 | – | – | ~80 | 4.91 | – | – | inactive | 30.9 | – | – | –
4 | O=C1C2CC(C(=O)N1CCCCN1CCN(c3ncccn3)CC1)C1CC=CC21 (centres unmarked) [Example 4, 5,5a,8,8a-Tetrahydro-3-[4-[4-(2-pyrimidinyl)-1-piperazinyl]butyl]1,5-methanocyclopent[d]azepine-2,4(1H,3H)-dione] | 59 | 3.5 | – | – | ~80 | 5.5 | inactive | – | weak | – | – | – | –
5 | O=C1C2CC(C(=O)N1CCCCN1CCN(c3cncc(Cl)n3)CC1)C1CC=CC21 (centres unmarked) [Example 5, 5,5a,8,8a-Tetrahydro-3-[4-[4-(6-chloro-2-pyrazinyl)-1-piperazinyl]butyl]-1,5-methanocyclopent[d]azepine-2,4(1H,3H)-dione] | 25 | 60 | – | – | > 20 | 47.2 | inactive | – | active | – | – | – | –
6 | O=C1C2CC(C(=O)N1CCCCN1CCN(c3ncccn3)CC1)c1ccccc12 [Example 8, 2,3,4,5-Tetrahydro-3-[4-[4-(2-pyrimidinyl)-1-piperazinyl]butyl]-1,5-methano-1H-3-benzazepine-2,4(3H, 5H)-dione] | 23 | – | – | 89 | > 20 | – | inactive | – | inactive | – | inactive | – | –
7 | O=C1C2CC(C(=O)N1CCCCN1CCN(c3cncc(Cl)n3)CC1)c1ccccc12 [Example 9, 2,3,4,5-Tetrahydro-3-[4-[4-(6-chloro-2-pyrazinyl)-1-piperazinyl]butyl]-1,5-methano-1H-3-benzazepine-2,4(3H, 5H)-dione] | 0 | – | – | 61 | > 20 | – | inactive | – | – | – | – | – | –
8 | O=C1C2CC(C(=O)N1CCCCN1CCN(c3cccc(C(F)(F)F)c3)CC1)C1CCCC21 (centres unmarked) [Example 11, Hexahydro-3-[4-[4-(3-trifluoromethylphenyl)-1-piperazinyl]butyl]-1,5-methano-cyclopent[d]azepine-2,4(1H, 3H)-dione] | 100 | 2 | – | – | > 20 | 18.9 | – | 46.2 | – | 42.4 | – | – | –
9 | O=C1CC2(CCCC2)CC(=O)N1CCCCN1CCN(c2ncccn2)CC1 [buspirone, reference compound] | – | – | – | – | – | – | – | – | – | – | – | potent affinity | –
10 | CN(C)CCCN1c2ccccc2Sc2ccc(Cl)cc21 [chlorpromazine, reference compound] | – | – | – | – | – | – | – | – | – | – | – | – | 1.51
11 | O=C(CCCN1CCC(O)(c2ccc(Cl)cc2)CC1)c1ccc(F)cc1 [haloperidol, reference compound] | – | – | – | – | – | – | – | – | – | – | – | – | 1.00

Now from value to compound, other results behind:

Row | inhibition at 1 µM (D-2 dopamine receptor) [%] | Ki [2] [nM] | Ki (D-2 dopamine receptor) [nM] | inhibition at 1 µM [2] [%] | Compound | inhibition in vivo at 40 mg/kg [1] [%] | ED50 [3, 5] [mg/kg] | Apomorphine antagonism ED50, stereotypy [3] | ED50 [4] [mg/kg] | Conditioned avoidance, discrete trial AB50 (Avoidance Block) [4] | ED50 [3, 6] [mg/kg] | Apomorphine antagonism ED50, climbing [3] | Affinity for 5-HT1A serotonin receptor (in words) ([2]; [3H] 8-OH DPAT displacement) | Ratio of the ED50 for stereotyped behavior to the ED50 for climbing [3]
12 | – | 0.23 | 56 | – | O=C1C2CC(C(=O)N1CCCCN1CCN(c3ncccn3)CC1)C1C2C2C3CC4C2C4C31 (centres unmarked) [Example 6, Decahydro-3-[4-[4-(2-pyrimidinyl)-1-piperazinyl]butyl]-1,5-methano-6,7,9-metheno-2H-pentaleno[1,2-d]azepine-2,4(3H)-dione] | ~80 | 0.4 | inactive | 33.8 | – | – | – | – | –
13 | 54 | 6.95 | – | – | O=C1C2CC(C(=O)N1CCCCN1CCN(c3cncc(Cl)n3)CC1)C1C2C2C3CC4C2C4C31 (centres unmarked) [Example 7, Decahydro-3-[4-[4-(6-chloro-2-pyrazinyl)-1-piperazinyl]butyl]-1,5-methano-6,7,9-metheno-2H-pentaleno[1,2-d]azepine-2,4(3H)-dione] | > 20 | – | inactive | – | inactive | – | inactive | – | –
14 | – | 0.29 | 18 | – | COc1ccccc1N1CCN(CCCCN2C(=O)C3CC(C2=O)C2C3C3C4CC5C3C5C42)CC1 (centres unmarked) [Example 10, Decahydro-3-[4-[4-(2-methoxyphenyl)-1-piperazinyl]butyl]-1,5-methano-6,7,9-metheno-2H-pentaleno[1,2-d]azepine-2,4(3H)-dione] | > 20 | 4.71 | – | – | inactive | 10 | – | – | –
15 | – | 0.2 | 30 | – | O=C1C2CC(C(=O)N1CCCCN1CCN(c3cccc(C(F)(F)F)c3)CC1)C1C2C2C3CC4C2C4C31 (centres unmarked) [Example 12, Decahydro-3-[4-[4-(3-trifluoromethylphenyl)-1-piperazinyl]butyl]-1,5-methano-6,7,9-metheno-2H-pentaleno[1,2-d]azepine-2,4(3H)-dione] | < 20 | – | inactive | – | – | – | inactive | – | –
16 | 51 | 4 | – | – | O=C1C2CC(C(=O)N1CCCCN1CCN(c3cnccn3)CC1)C1C2C2C3CC4C2C4C31 (centres unmarked) [Example 13, Decahydro-3-[4-[4-(2-pyrazinyl)-1-piperazinyl]butyl]-1,5-methano-6,7,9-metheno-2H-pentaleno[1,2-d]azepine-2,4(3H)-dione] | ~80 | 5.44 | – | 40.2 | – | 32.3 | – | – | –
17 | 45 | – | – | 86 | O=C1C2CC(C(=O)N1CCCCN1CCN(c3ccc4ccccc4n3)CC1)C1C2C2C3CC4C2C4C31 (centres unmarked) [Example 14, Decahydro-3-[4-[4-(2-quinolyl)-1-piperazinyl]butyl]-1,5-methano-6,7,9-methano-2H-pentaleno[1,2-d]azepine-2,4(3H)-dione] | ~20 | 44 | inactive | – | – | – | – | – | –
18 | – | 0.5 | 174 | – | O=C1C2CC(C(=O)N1CCCCN1CCN(c3ncccn3)CC1)C1C3CCC(C3)C21 (centres unmarked) [Example 15, Octahydro-3-[4-[4-(2-pyrimidinyl)-1-piperazinyl]butyl]-2H-1,5:6,9-dimethano-2H-3-benzazepine-2,4(3H)-dione] | > 20 | 14.3 | – | – | inactive | 2.54 | – | – | –

Reference: patent publication US4797488A, “Psychotropic polycyclic imides” (American Home Products Corporation, priority 1987, dated 1989)
